Measured values: PubChem BioAssay AID489035 (Sanford-Burnham Center for Chemical Genomics, 2010)
Active and inactive are the calls of the source. How the calls were made is not given here.

System: Jurkat NF-kB reporter, TCR-induced, luciferase luminescence
Assay: inhibitors of TCR-driven NF-kB activation, dose response, Jurkat cells, luminescence (AID 489035)

| Compound | IC50 |
| --- | --- |
| O=C(Nc1ccn(Cc2ccccc2F)n1)c1ccc(COc2ccc(Br)cc2)cc1 | > 80 µM (inactive) |
| Cc1ccc(C(=O)O/N=C(\N)c2ccccn2)c(C)c1 | 0.42 µM |
| CCOC(=O)c1[nH]c(C)c(C(=O)Nc2ccc(C)cc2C)c1C | > 80 µM (inactive) |
| CC(=O)N1c2ccc(S(=O)(=O)N3CCC(C(=O)Nc4cccc(C)n4)CC3)cc2CC1C (configuration not stated) | > 80 µM (inactive) |
| Cn1ncc2c(N3CCN(c4ccc(Cl)c(Cl)c4)CC3)ncnc21 | 7.55 µM |
| Cc1noc(C)c1COc1ccc(CC(=O)NCc2ccccc2)cc1 | > 80 µM (inactive) |
| Oc1ccc2ccccc2c1/C=N/Nc1nnc(-c2ncc[nH]2)c2ccccc12 | > 80 µM (inactive) |
| COc1cccc(/C=N/NC(=O)c2[nH]nc3c2CCc2ccccc2-3)c1O | 59.5 µM (inactive) |
| Cc1ccc(Oc2ccc(OCC(=O)Nc3ccncc3)cc2)cc1 | 19.3 µM |
| Cc1ccc(NC(=O)C2=C(c3ccccc3)S(=O)(=O)CCS2(=O)=O)cc1 | 1.61 µM |
| Cc1cccc(N2CCN(C(=O)c3ccc(CS(=O)(=O)c4ccccc4C)o3)CC2C)c1 (configuration not stated) | 9.62 µM |
| Cc1ccc(Nc2nc(-c3c(C)nc4ccccn34)cs2)cc1 | 24.6 µM (inactive) |
| CCSc1nc2ccccc2n1C(=O)/C=C\c1ccc(OC)c(OC)c1 | 2.27 µM |
| C=C1C(O)[C@@H]2O[C@]3(CC[C@H](/C=C/C(C)[C@@H]4CC(C)=CC5(O[C@H](C[C@@](C)(O)CO)CCC5O)O4)O3)CC[C@H]2O[C@@H]1C(O)CC(C)[C@H]1OC2(CCCCO2)CCC1C (some centres not stated) | 0.29 µM |
| COc1ccc(/C=C2/C(=O)OCc3cc(OC)c(OC)cc32)cc1 | > 80 µM (inactive) |
| CCOC(=O)COc1cccc2c(=O)n(CC(=O)NCc3ccc(F)cc3)ccc12 | > 80 µM (inactive) |
| Cn1c(SC2=CS(=O)(=O)c3ccccc32)nc2ccccc21 | 1.46 µM |
| CCOC(=O)c1[nH]c(C=O)c(C(=O)OCC)c1C | > 80 µM (inactive) |
| COc1ccc(Cn2c(SCc3ccc(C)cc3)nc3cc(OC)c(OC)cc3c2=N)cc1Cl | 3.51 µM |
| C[C@]12CC[C@H](O)C[C@H]1CC[C@@H]1[C@@H]2CC[C@]2(C)[C@@H](C3=CC(=O)OC3)CC[C@]12O | 3.53 µM |
| Cc1cc(/C=C2\Sc3ccccc3N2C)cc(C)[n+]1CC1CCCO1 (configuration not stated) | 19.2 µM |
| Cc1cc(C)cc(C(=O)N2CC(=O)Nc3ccccc32)c1 | 15.7 µM |
| COc1cc(C2c3cc4c(cc3C(OC3OC5COC(c6cccs6)OC5C(O)C3O)C3COC(=O)C23)OCO4)cc(OC)c1O (configuration not stated) | 0.68 µM |
| CN[C@H]1CCc2cc(OC)c(OC)c(OC)c2-c2ccc(OC)c(=O)cc21 | > 80 µM (inactive) |
| Cc1cccc(OCCNC(=O)c2ccc(Cl)c(S(=O)(=O)NCc3cccnc3)c2)c1 | > 80 µM (inactive) |

| Compound | IC50 |
| --- | --- |
| O=C1/C(=C/c2ccc(N3CCOCC3)o2)SC(=Nc2ccccc2)N1CCc1c[nH]c2ccccc12 | 18.3 µM |
| CC1CC(C)CN(S(=O)(=O)c2ccc(NC(=O)c3ccc(=O)[nH]c3)cc2)C1 (configuration not stated) | > 80 µM (inactive) |
| CC[n+]1cc(C)ccc1/C=C/c1ccc(N(C)C)cc1 | > 80 µM (inactive) |
| CCOCCCNC(=O)c1ccc2c(c1)N=C(CC)c1cc(Br)ccc1S2 | 5.67 µM |
| CCOc1ccc(Nc2cc(C)nc(-n3nc(C)cc3C)n2)cc1 | > 80 µM (inactive) |
| COc1ccc(S(=O)(=O)Nc2cccc(-c3ccc4nncn4n3)c2)cc1F | > 80 µM (inactive) |
| COc1ccc(C)c(Cn2c(-c3nonc3N)nc3ccccc32)c1 | > 80 µM (inactive) |
| Cc1nnc(N/N=C/c2ccccn2)[nH]c1=O | 1.18 µM |
| COc1ccc(Nc2nc3cc(C)ccc3cc2C#N)c(OC)c1 | > 80 µM (inactive) |
| Cc1ccnc2c1ccc1c(C)ccnc12 | 2.42 µM |
| COC(=O)c1cnc(Oc2ccc(NC(=O)NC(=O)c3c(F)cccc3Cl)cc2)cc1C(F)(F)F | > 80 µM (inactive) |
| COc1ccc(NC(=O)Cn2nnc(-c3ccccc3NS(=O)(=O)c3ccc(OC)cc3)n2)cc1 | > 80 µM (inactive) |
| O=Cc1cc2ccccc2nc1SCc1ccc(Cl)c(Cl)c1 | > 80 µM (inactive) |
| O=c1cc(-c2ccccc2)[nH]c2cc(Cl)ccc12 | 18.8 µM |
| COCCCNC(=O)C(=O)Nc1ccc2c(c1)N(S(=O)(=O)c1cccs1)CCC2 | 5.46 µM |
| Cc1ccc(C)c(NS(=O)(=O)c2ccc(-c3cnc(C4CC4)o3)cc2)c1 | 13.8 µM |
| COc1ccc(NC(=O)C(=O)NCC2CCCN2S(=O)(=O)c2ccc(C)cc2)cc1 (configuration not stated) | > 80 µM (inactive) |
| Cc1sc2ncnc(NC3CCN(Cc4ccccc4)CC3)c2c1C | > 80 µM (inactive) |
| O=[N+]([O-])c1ccc(-c2nc(C(Cl)Cl)c3ccccc3n2)cc1 | 1.12 µM |
| CCC(C)(C)c1ccc(OCCCC[n+]2cccc(C)c2C)c(C(C)(C)CC)c1 | 4.76 µM |
| CCOCCCNC(=O)c1cc2c(=O)n3cccc(C)c3nc2n1C | > 80 µM (inactive) |
| CC1=CC(C)(C)N(S(=O)(=O)c2ccc(C)cc2)c2cc(C)ccc21 | 6.77 µM |
| O=S(=O)(C/C(=C/CO)S(=O)(=O)c1ccccc1)c1ccccc1 | 0.77 µM |
| COc1ccc(/C=N/NC(=O)c2[nH]c3ccc(Br)cc3c2-c2ccccc2)cc1 | 1.64 µM |
| Cc1cccc(N2CCN(C(=O)c3ccc4[nH]c(C)c(C)c4c3)CC2)c1C | > 80 µM (inactive) |

| Compound | IC50 |
| --- | --- |
| O=C(Nc1ccc(Cc2ccncc2)cc1)c1ccc(S(=O)(=O)N2CCCC2)cc1 | 77.4 µM (inactive) |
| CCCCCCCCCCCCCCCC[n+]1ccc(C(N)=O)cc1 | 1.49 µM |
| CCCOCCOC(=O)c1[nH]c2c(c1C)C(=O)CC(c1cc(OC)ccc1OC)C2 (configuration not stated) | > 80 µM (inactive) |
| Cc1ccc(COC(=O)c2cc([N+](=O)[O-])ccc2N2CCOCC2)cc1 | 49 µM (inactive) |
| COc1ccc(NS(=O)(=O)c2cc(-c3cnc(C4CC4)o3)ccc2C)cc1 | 27 µM (inactive) |
| COc1ccccc1CNS(=O)(=O)c1ccc(-c2cc(C)no2)cc1 | > 80 µM (inactive) |
| Cc1ccsc1/C=N/NC(=O)c1cc(-c2ccncc2)nc2ccccc12 | 35.1 µM (inactive) |
| CCCCCCCCCn1c2c(c(=N)c3c1CCC3)CCCC2 | 3.4 µM |
| C/C(=N\NC(=O)c1ccc(Cl)c(Cl)c1)c1ccccn1 | 1.3 µM |
| CCn1c2ccccc2c2cc(NC(=O)c3cc(OC)cc(OC)c3)ccc21 | > 80 µM (inactive) |
| Cc1c(C(=O)OC2CCCC2)[nH]c2c1C(=O)CC(c1ccco1)C2 (configuration not stated) | > 80 µM (inactive) |
| COC(=O)c1ccccc1NC1=C/C(=N\S(=O)(=O)c2cccs2)c2ccccc2C1=O | 2.91 µM |
| COc1cccc(N2CCN(c3ncnc4c3cnn4-c3ccc(C)cc3C)CC2)c1 | 11 µM |
| CCN(CC)c1ccc2nc3ccccc3[n+](CC)c2c1 | 12.4 µM |
| COc1cc(-c2noc(C)c2C#Cc2ccsc2)cc(OC)c1OC | > 80 µM (inactive) |
| CCOC(=O)C(C)Oc1cccc2c(=O)n(CC(=O)NCc3ccccc3)ccc12 (configuration not stated) | > 80 µM (inactive) |
| COc1cccc(/C=N/Nc2ncnc3c2ncn3Cc2ccccc2)c1O | > 80 µM (inactive) |
| O=C(/C=C/c1cccc([N+](=O)[O-])c1)n1cnc2ccccc21 | 5.79 µM |
| CC1CCN(c2c(NCc3ccc(C(=O)N4CCc5ccccc54)cc3)c(=O)c2=O)CC1 | > 80 µM (inactive) |
| Cc1ccc(/C=N/NC(=O)C2COc3ccccc3O2)s1 (configuration not stated) | > 80 µM (inactive) |
| CCOC(=O)/C=C/S(=O)(=O)c1ccc(NC(C)=O)cc1 | 1.12 µM |
| Cc1ccc2[nH]c3c(c2c1)CCCC3NC(=O)CCl (configuration not stated) | 0.32 µM |
| CCCC(=O)NC(c1ccc(C(C)C)cc1)c1ccc2cccnc2c1O (configuration not stated) | 4.15 µM |
| O=C(Nc1ccc(S(=O)(=O)N2CCOCC2)cc1)c1ccc(CN2CCc3ccccc3C2)cc1 | 12.7 µM |
| COc1cccc(-c2cc(C(=O)Nc3cc(C)n(Cc4ccc(Cl)cc4)n3)no2)c1 | > 80 µM (inactive) |

| Compound | IC50 |
| --- | --- |
| Cc1noc(C)c1COc1cccc(C(=O)OCC(=O)N2CC(=O)Nc3ccccc32)c1 | > 80 µM (inactive) |
| CCN(CC)c1ccc(/C=C/c2ccc3ccc(OC)cc3[n+]2CC)cc1 | 51.9 µM (inactive) |
| COc1ccc(OC)c(C2CC(=O)c3c([nH]c(C(=O)OC(C)C)c3C)C2)c1 (configuration not stated) | > 80 µM (inactive) |
| CC(Oc1ccc(Cl)cc1Cl)C(=O)Nc1ccncc1 (configuration not stated) | 61.3 µM (inactive) |
| COc1cc(C2=NOC(C(=O)NCc3ccc(F)cc3)C2)cc(OC)c1OC (configuration not stated) | 6.16 µM |
| Cc1cc(C)cc(NS(=O)(=O)c2ccc(-c3cnc(C4CC4)o3)cc2)c1 | 20.5 µM (inactive) |
| CCN(CC)c1ccc2nc3ccc(N)cc3[n+](-c3ccccc3)c2c1 | 2.62 µM |
| CCc1cc2c(=O)nc3n(c2s1)Cc1ccccc1/C3=C(/O)c1cccc([N+](=O)[O-])c1 | > 80 µM (inactive) |
| COc1ccc(S(=O)(=O)N2N=C(C)Oc3ccccc3C2=O)cc1 | 33 µM (inactive) |
| COc1ccc(C2=Nn3c([n+](C)c4ccccc43)SC2)cc1 | > 80 µM (inactive) |
| COc1cc2c(c(OC)c1OC)-c1ccc(OC)c(=O)cc1[C@@H](NC(C)=O)CC2 | > 80 µM (inactive) |
| COC(=O)c1cn(NC(=O)c2cc([N+](=O)[O-])ccc2F)c(=O)c2ccccc12 | 0.46 µM |
| C/C=C(\C)C(=O)N[C@@H](c1ccccc1)[C@@H](O)C(=O)O[C@H]1C[C@@]2(O)[C@@H](OC(=O)c3ccccc3)C3[C@](C)(C(=O)[C@H](OC(C)=O)C(=C1C)C2(C)C)[C@@H](O)C[C@H]1OC[C@@]31OC(C)=O (some centres not stated) | < 0.16 µM |
| CSc1ccc(COC(=O)c2cc([N+](=O)[O-])ccc2N2CCOCC2)cc1 | > 80 µM (inactive) |
| COc1cc2c(c(OC)c1OC)-c1ccc(OC)c(=O)cc1[C@@H](N(C)CC#CCO)CC2 | > 80 µM (inactive) |
| COc1cc(-c2noc(C)c2/C=C/c2cccc([N+](=O)[O-])c2)cc(OC)c1OC | > 80 µM (inactive) |
| CCCC[C@@H](C)C[C@@H](C)C(=O)N(C)[C@@H](CC(C)C)C(=O)N[C@H](C(=O)N(C)[C@H](C(=O)N1C[C@@H](O)C[C@H]1C(=O)N1C(=O)C=C[C@@H]1C)C(C)C)C(C)OC(C)=O (some centres not stated) | 4.87 µM |
| COC(=O)c1[nH]c2c(c1C)C(=O)CC(c1cccc(OC)c1)C2 (configuration not stated) | > 80 µM (inactive) |
| COC(=O)c1[nH]c2ccc(F)cc2c1NS(=O)(=O)c1ccc(OC)cc1 | > 80 µM (inactive) |
| CC(=O)Nc1ccc(S(=O)(=O)N2c3ccccc3C(C)=CC2(C)C)cc1 | 24.4 µM (inactive) |
| c1ccc(-c2cccc(-c3ccccn3)n2)nc1 | 1.61 µM |
| Cc1cc(C)nc(SCC(=O)Nc2ccnc3ccccc23)n1 | > 80 µM (inactive) |
